From US9522914B2, “Azole derivative” (TAISHO PHARMACEUTICAL CO., LTD, priority 2011, dated 2016)

Target: Human V1b receptor (Homo sapiens (Human), UniProt P47901)
Assay: Binding Test for V1b Receptor ([3H]AVP, crude membrane preparation of 293FT cells)
Details: inhibition of [3H]AVP binding (0.4 to 1 nmol/L), room temperature, 60 minutes
Experimental: Binding Test for V1b Receptor
Human V1b receptor was transiently expressed in 293FT cells (Invitrogen). The cells were collected and then homogenated in a 15 mmol/L tris-hydrochloric acid buffer (pH 7.4 and containing 2 mmol/L magnesium chloride, 0.3 mmol/L ethylenediaminetetracetic acid, and 1 mmol/L glycol ether diaminetetraacetic acid). The resulting homogenate was centrifuged at 50,000×g at 4° C. for 20 minutes. The precipitate was resuspended in a 75 mmol/L tris-hydrochloric acid buffer (pH 7.4 and containing 12.5 mmol/L magnesium chloride, 0.3 mmol/L ethylenediaminetetracetic acid, 1 mmol/L glycol ether diaminetetraacetic acid, and 250 mmol/L sucrose) to give a crude membrane preparation, which was stored at −80° C. until the binding test was initiated. In the binding test, the crude membrane preparation was diluted with a 50 mmol/L tris-hydrochloric acid buffer (pH 7.4 and containing 10 mmol/L magnesium chloride and 0.1% bovine serum albumin) and mixed with each test compound and [^3H]AVP (final concentration: 0.4 to 1 nmol/L), followed by incubation at room temperature for 60 minutes. The test compound was serially diluted with DMSO so that it would have final concentrations of 0.01 nmol/L to 1 μmol/L at the time of mixing. After the incubation, the mixture was suction filtered through a GF/C filter that was preliminarily impregnated with 0.3% polyethyleneimine. The GF/C filter was dried and after adding a scintillator, the residual radioactivity on the filter was measured using TopCount (PerkinElmer Inc.). The radioactivity in the presence of unlabeled AVP at […] was defined as 0%, and the radioactivity in the absence of unlabeled AVP was defined as 100%. A dose-response curve was plotted from radio activities in the presence of a test compound at various concentrations, and the 50% inhibitory concentration (IC50 value) of the test compound was calculated.

Human V1b receptor, sequence (P47901 whole entry): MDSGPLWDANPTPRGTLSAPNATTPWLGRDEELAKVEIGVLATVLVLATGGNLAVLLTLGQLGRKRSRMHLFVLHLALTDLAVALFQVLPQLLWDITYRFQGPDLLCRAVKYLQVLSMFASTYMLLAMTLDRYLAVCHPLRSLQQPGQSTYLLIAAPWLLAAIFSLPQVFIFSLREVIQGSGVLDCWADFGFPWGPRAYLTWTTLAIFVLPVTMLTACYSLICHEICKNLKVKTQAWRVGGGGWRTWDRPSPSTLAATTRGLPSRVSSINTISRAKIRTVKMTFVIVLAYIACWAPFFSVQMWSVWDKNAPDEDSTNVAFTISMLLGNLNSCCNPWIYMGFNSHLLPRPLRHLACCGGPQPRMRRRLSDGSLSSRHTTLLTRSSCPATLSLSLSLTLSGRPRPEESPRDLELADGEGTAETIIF

Row | SMILES | IC50 [nM]
1 | COc1cccc(-c2nc(-c3ccc(CCN4CCC(N(C)C)CC4)cc3)nn2CC(=O)NC(C)C)c1 [Example B-26, 2-[3-(4-{2-[4-(dimethylamino)piperidin-1-yl]ethyl}phenyl)-5-(3-methoxyphenyl)-1H-1,2,4-triazol-1-yl]-N-(propan-2-yl)acetamide] | 100 to 1000
2 | COc1cccc(-c2nc(-c3ccc(CC(C)N4C5CCC4COC5)cc3)nn2CC(=O)NC(C)C)c1 (stereo not drawn) [Example B-20, 2-[5-(3-methoxyphenyl)-3-{4-[2-(3-oxa-8-azabicyclo[3.2.1]oct-8-yl)propyl]phenyl}-1H-1,2,4-triazol-1-yl]-N-(propan-2-yl)acetamide] | 0.43
3 | CC(C)(C)NC(=O)Cc1nn(-c2ccc(CCN3CCOCC3)cn2)c(=O)n1-c1cccc(Cl)c1 [Example D-15, N-tert-butyl-2-[4-(3-chlorophenyl)-1-{5-[2-(morpholin-4-yl)ethyl]pyridin-2-yl}-5-oxo-4,5-dihydro-1H-1,2,4-triazol-3-yl]acetamide] | 10 to 100
4 | COc1cc(-c2nc(-c3ccc(CCN4CCC[C@H]4C)cc3)cn2CC(=O)NC(C)C)ccc1F [Example A-12, 2-[2-(4-fluoro-3-methoxyphenyl)-4-(4-{2-[(2R)-2-methylpyrrolidin-1-yl]ethyl}phenyl)-1H-imidazol-1-yl]-N-(propan-2-yl)acetamide] | 17
5 | CCN(CC)CCc1ccc(-c2cn(CC(=O)NC(C)C)c(-c3ccc(F)c(OC)c3)n2)cc1 [Example A-31, 2-[4-{4-[2-(diethylamino)ethyl]phenyl}-2-(4-fluoro-3-methoxyphenyl)-1H-imidazol-1-yl]-N-(propan-2-yl)acetamide] | 10 to 100
6 | CCC1COCCN1CCc1ccc(-n2nc(CC(=O)NC(C)C)n(-c3cccc(Cl)c3)c2=O)cc1 [Example D-54, 2-[4-(3-chlorophenyl)-1-{4-[2-(3-ethylmorpholin-4-yl)ethyl]phenyl}-5-oxo-4,5-dihydro-1H-1,2,4-triazol-3-yl]-N-(propan-2-yl)acetamide] | 10 to 100
7 | COc1cccc(-n2c(CC(=O)NC(C)(C)C)nn(-c3ccc(CCN4C5CCC4COC5)cc3)c2=O)c1 [Example D-07, N-tert-butyl-2-[4-(3-methoxyphenyl)-1-{4-[2-(3-oxa-8-azabicyclo[3.2.1]oct-8-yl)ethyl]phenyl}-5-oxo-4,5-dihydro-1H-1,2,4-triazol-3-yl]acetamide] | 5.5
8 | CC(C)NC(=O)Cc1nc(-c2ccc(CCN3CCOCC3)cc2)sc1-c1cccc(Cl)c1 [Example C-14, 2-[5-(3-chlorophenyl)-2-{4-[2-(morpholin-4-yl)ethyl]phenyl}-1,3-thiazol-4-yl]-N-(propan-2-yl)acetamide] | 14
9 | COc1cccc(-c2nc(-c3ccc(CCN4C5CCC4COC5)cc3)cn2CC(=O)NC(C)C)c1 [Example A-42, 2-[2-(3-methoxyphenyl)-4-{4-[2-(3-oxa-8-azabicyclo[3.2.1]oct-8-yl)ethyl]phenyl}-1H-imidazol-1-yl]-N-(propan-2-yl)acetamide] | 6.3
10 | CC(C)NC(=O)Cn1cc(C(=O)NC2CCC(N3CCOCC3)CC2)nc1-c1cccc(Cl)c1 (stereo not drawn) [Example A-47, 2-(3-chlorophenyl)-N-[4-(morpholin-4-yl)cyclohexyl]-1-[2-oxo-2-(propan-2-ylamino)ethyl]-1H-imidazole-4-carboxamide] | 100 to 1000
11 | COc1cc(-c2nc(-c3ccc(CCN4C5CCC4COC5)cc3)cn2CC(=O)NC(C)C)ccc1F [Example A-22, 2-[2-(4-fluoro-3-methoxyphenyl)-4-{4-[2-(3-oxa-8-azabicyclo[3.2.1]oct-8-yl)ethyl]phenyl}-1H-imidazol-1-yl]-N-(propan-2-yl)acetamide] | 2.6
12 | CC(C)NC(=O)Cc1nn(-c2ccc(CCN3CCOCC3)cn2)c(=O)n1-c1ccc(F)c(Cl)c1 [Example D-28, 2-[4-(3-chloro-4-fluorophenyl)-1-{5-[2-(morpholin-4-yl)ethyl]pyridin-2-yl}-5-oxo-4,5-dihydro-1H-1,2,4-triazol-3-yl]-N-(propan-2-yl)acetamide] | 10 to 100
13 | CC(C)NC(=O)Cc1nn(-c2ccc(CCN3CCCCC3)cc2)cc1-c1cccc(Cl)c1 [Example C-01, 2-[4-(3-chlorophenyl)-1-{4-[2-(piperidin-1-yl)ethyl]phenyl}-1H-pyrazol-3-yl]-N-(propan-2-yl)acetamide] | 21
14 | CC(C)NC(=O)Cn1cc(-c2ccc(CCN3CC4(COC4)C3)cc2)nc1-c1cccc(Cl)c1 [Example A-03, 2-[2-(3-chlorophenyl)-4-{4-[2-(2-oxa-6-azaspiro[3.3]hept-6-yl)ethyl]phenyl}-1H-imidazol-1-yl]-N-(propan-2-yl)acetamide] | 10 to 100
15 | CC(C)NC(=O)Cn1cc(-c2ccc(CC(C)N3CCOCC3)cc2)nc1-c1cccc(Cl)c1 (stereo not drawn) [Example A-44, 2-[2-(3-chlorophenyl)-4-{4-[2-(morpholin-4-yl)propyl]phenyl}-1H-imidazol-1-yl]-N-(propan-2-yl)acetamide] | 0.16
16 | CC(C)NC(=O)Cc1nn(-c2ccc(CCN3C[C@@H](C)O[C@@H](C)C3)cc2)c(=O)n1-c1cccc(Cl)c1 [Example D-52, 2-[4-(3-chlorophenyl)-1-(4-{2-[(2R,6S)-2,6-dimethylmorpholin-4-yl]ethyl}phenyl)-5-oxo-4,5-dihydro-1H-1,2,4-triazol-3-yl]-N-(propan-2-yl)acetamide] | 100 to 1000
17 | COc1cccc(-c2nc(-c3ccc(CCN4CCC5CCCCC5C4)cc3)nn2CC(=O)NC(C)C)c1 (stereo not drawn) [Example B-27, 2-[5-(3-methoxyphenyl)-3-{4-[2-(octahydroisoquinolin-2(1H)-yl)ethyl]phenyl}-1H-1,2,4-triazol-1-yl]-N-(propan-2-yl)acetamide] | 10 to 100
18 | CC(C)NC(=O)Cc1nn(-c2ccc(CCN3CCCCC3)cc2)c(=O)n1-c1ccc(F)c(Cl)c1 [Example D-44, 2-[4-(3-chloro-4-fluorophenyl)-5-oxo-1-{4-[2-(piperidin-1-yl)ethyl]phenyl}-4,5-dihydro-1H-1,2,4-triazol-3-yl]-N-(propan-2-yl)acetamide] | 16
19 | CC(C)NC(=O)Cc1nn(-c2ccc(CCN3C(C)COCC3C)cc2)c(=O)n1-c1cccc(Cl)c1 [Example D-60, 2-[4-(3-chlorophenyl)-1-{4-[2-(3,5-dimethylmorpholin-4-yl)ethyl]phenyl}-5-oxo-4,5-dihydro-1H-1,2,4-triazol-3-yl]-N-(propan-2-yl)acetamide] | 100 to 1000
20 | CC(C)NC(=O)Cc1oc(-c2ccc(CCN3CCOCC3)cc2)nc1-c1cccc(Cl)c1 [Example C-11, 2-[4-(3-chlorophenyl)-2-{4-[2-(morpholin-4-yl)ethyl]phenyl}-1,3-oxazol-5-yl]-N-(propan-2-yl)acetamide] | 3.9
21 | CC(C)NC(=O)Cc1cn(-c2ccc(CCN3CC4(COC4)C3)cc2)nc1-c1cccc(Cl)c1 [Example C-04, 2-[3-(3-chlorophenyl)-1-{4-[2-(2-oxa-6-azaspiro[3.3]hept-6-yl)ethyl]phenyl}-1H-pyrazol-4-yl]-N-(propan-2-yl)acetamide] | 10 to 100
22 | COc1cccc(-c2nc(-c3ccc(CCN4CCCC(OC)C4)cc3)nn2CC(=O)NC(C)C)c1 (stereo not drawn) [Example B-25, 2-[5-(3-methoxyphenyl)-3-{4-[2-(3-methoxypiperidin-1-yl)ethyl]phenyl}-1H-1,2,4-triazol-1-yl]-N-(propan-2-yl)acetamide] | 10 to 100
23 | CC(C)NC(=O)Cn1cc(-c2cccc(OCCCN3CCCCC3)c2)nc1-c1cccc(Cl)c1 [Example A-35, 2-[2-(3-chlorophenyl)-4-{3-[3-(piperidin-1-yl)propoxy]phenyl}-1H-imidazol-1-yl]-N-(propan-2-yl)acetamide] | 100 to 1000
24 | CC(C)NC(=O)Cn1nc(-c2ccc(CN3CCN(C)CC3)cc2)nc1-c1cccc(Cl)c1 [Example B-03, 2-[5-(3-chlorophenyl)-3-{4-[(4-methylpiperazin-1-yl)methyl]phenyl}-1H-1,2,4-triazol-1-yl]-N-(propan-2-yl)acetamide] | 100 to 1000
25 | CC(C)NC(=O)Cc1nn(-c2ccc(CC(C)N3C4CCC3COC4)cn2)c(=O)n1-c1cccc(Cl)c1 [Example D-34, 2-[4-(3-chlorophenyl)-1-{5-[2-(3-oxa-8-azabicyclo[3.2.1]oct-8-yl)propyl]pyridin-2-yl}-5-oxo-4,5-dihydro-1H-1,2,4-triazol-3-yl]-N-(propan-2-yl)acetamide] | 3.3
26 | CC(C)NC(=O)Cc1nn(-c2ccc(CCN3C4CCC3COC4)cc2)c(=O)n1-c1ccc(F)c(Cl)c1 [Example D-27, 2-[4-(3-chloro-4-fluorophenyl)-1-{4-[2-(3-oxa-8-azabicyclo[3.2.1]oct-8-yl)ethyl]phenyl}-5-oxo-4,5-dihydro-1H-1,2,4-triazol-3-yl]-N-(propan-2-yl)acetamide] | 5.3
27 | COc1cccc(-n2c(CC(=O)NC(C)C)nn(-c3ccc(CCN4C5CCC4COC5)cc3)c2=O)c1 [Example D-39, 2-[4-(3-methoxyphenyl)-1-{4-[2-(3-oxa-8-azabicyclo[3.2.1]oct-8-yl)ethyl]phenyl}-5-oxo-4,5-dihydro-1H-1,2,4-triazol-3-yl]-N-(propan-2-yl)acetamide] | 10 to 100
